Values joined by “and” are separate entries in the source; they are usually repeats but may differ in a detail not shown here. Equal values may be shown once.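 Each compound was tested at five concentrations against cells in 96-well plates for 48 hours. Abbreviation: GI50, concentration required for 50% inhibition of growth. TGI is the concentration that stops growth completely.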

Some test systems named below: SNB-78 CNS; DLD-1 colon; HOP-18 NSCLC; KM20L2 colon; RXF-631 renal; DMS 273 small cell lung; XF 498 CNS; M19-MEL melanoma; P388 leukemia; SN12K1 renal; P388/ADR leukemia.
Common to all, as to assay: NCI tumour cell line growth inhibition, 48 h

In the case of `C=CCN1CCC23c4c5ccc(O)c4OC2C(=NN=C2CCC4(O)C6Cc7ccc(O)c8c7C4(CCN6CC=C)C2O8)CCC3(O)C1C5` (stereo unspecified), the TGI in the experiment with SNB-78 CNS was 68 µM; in the experiment on DLD-1 colon, > 100 µM; in the experiment with HOP-18 NSCLC it was > 100 µM; with KM20L2 colon, 47.8 µM; in the experiment with RXF-631 renal, 50.2 µM; in the experiment with DMS 273 small cell lung, 37.7 µM. In addition, the TGI with XF 498 CNS was 32.9 µM.

`CC(C)(C)[Si](C)(C)OC1C(=O)C[C@H]2CCCC[C@@H]12` (stereo partly specified): the TGI with SNB-78 CNS, in the experiment on DLD-1 colon, in the experiment on HOP-18 NSCLC, with KM20L2 colon, in the experiment with M19-MEL melanoma and in the experiment with DMS 273 small cell lung was > 100 µM each time. The TGI with XF 498 CNS was > 100 µM.

On to `Cn1c2ccccc2c2ncc3[nH]c4ccccc4c3c21`, for which the TGI in the experiment on SNB-78 CNS was 57.6 µM; in the experiment with DLD-1 colon, > 100 µM; in the experiment on KM20L2 colon, 36.6 µM; in the experiment on RXF-631 renal, > 100 µM; with M19-MEL melanoma, 49.1 µM; with DMS 273 small cell lung, 34.7 µM. Further, in the experiment with XF 498 CNS, the TGI was 31.8 µM.

For the molecule `CSc1nc(NC2OC(COC(C)=O)C(OC(C)=O)C(OC(C)=O)C2OC(C)=O)c(N=CC=Nc2c(NC3OC(COC(C)=O)C(OC(C)=O)C(OC(C)=O)C3OC(C)=O)nc(SC)n(C)c2=O)c(=O)n1C` (stereo unspecified), the TGI in the experiment on SNB-78 CNS is > 93.7 µM; in the experiment on DLD-1 colon, > 100 µM; in the experiment on HOP-18 NSCLC it was > 100 µM; in the experiment on KM20L2 colon it was > 100 µM; in the experiment on RXF-631 renal, > 100 µM; with M19-MEL melanoma, > 100 µM. Moreover, the results for the TGI in the experiment with DMS 273 small cell lung and in the experiment on XF 498 CNS were > 100 µM and 30.3 µM, respectively.

Turning to `C[C@]12CCC(=O)C=C1CC[C@@H]1C2CC[C@]2(C)Nc3[nH]ncc3CC12` (stereo partly specified), the TGI in the experiment with SNB-78 CNS, with DLD-1 colon, in the experiment with KM20L2 colon, with M19-MEL melanoma, with DMS 273 small cell lung and in the experiment with XF 498 CNS was > 100 µM in each case.

Take `Nc1ccn(C2OC(CO)C(O)C2O)c(=O)n1` (stereo unspecified): the TGI was > 500 µM in the experiment with DLD-1 colon; 250 µM in the experiment on HOP-18 NSCLC; > 482 µM in the experiment on KM20L2 colon; > 500 µM in the experiment with M19-MEL melanoma; 1.81 µM in the experiment with P388 leukemia; > 500 µM in the experiment on SN12K1 renal. The TGI in the experiment with DMS 273 small cell lung was 344 µM; in the experiment on XF 498 CNS, > 494 µM; in the experiment with P388/ADR leukemia, 1.15 µM. Besides, the GI50 in the experiment with HOP-18 NSCLC was 77.1 µM; in the experiment with M19-MEL melanoma, 15.6 µM.

In the case of `CCOC(=O)c1ccc(N=Nc2cc(C(=O)OCC)ccc2O)cc1`, the TGI with DLD-1 colon is > 100 µM; with HOP-18 NSCLC, > 100 µM; in the experiment with KM20L2 colon it was > 100 µM; in the experiment on M19-MEL melanoma it was > 100 µM; in the experiment with DMS 273 small cell lung, > 100 µM; in the experiment on XF 498 CNS, 22 µM.

With `COC(=O)c1s/c(=N\C(=S)N(C)C)n(-c2ccc(Cl)cc2)c1C(=O)OC`, the TGI in the experiment with SNB-78 CNS, in the experiment with KM20L2 colon, with M19-MEL melanoma and with DMS 273 small cell lung was > 100 µM in each case.

`O=C1CCC(=O)c2c1c(O)c1ccncc1c2O`: the TGI worked out at 38.4 µM in the experiment with SNB-78 CNS; 28.1 µM with DLD-1 colon; 60.5 µM in the experiment with HOP-18 NSCLC; 49.8 µM with KM20L2 colon; 54.8 µM in the experiment on RXF-631 renal; 37.7 µM with DMS 273 small cell lung. For the same molecule, in the experiment on XF 498 CNS, the TGI was determined as 32.7 µM.

For `COC12OCCN(C)C1=CC(=O)C1=NNC(C)C12` (stereo unspecified), the TGI in the experiment on SNB-78 CNS, with DLD-1 colon, in the experiment on HOP-18 NSCLC, in the experiment with RXF-631 renal, in the experiment on M19-MEL melanoma and in the experiment with DMS 273 small cell lung was > 100 µM throughout.

As to `COC(=O)C1=C(C(=O)OC)C2=S(SC3=C2CCCC3)S1` (stereo unspecified), the TGI with DLD-1 colon is > 100 µM; in the experiment with KM20L2 colon, 76.5 µM; in the experiment with M19-MEL melanoma it was > 100 µM; with DMS 273 small cell lung, 34.2 µM.

As to `C[Si](C)(C)/C(I)=C/CO`, the TGI worked out at 95.3 µM in the experiment on SNB-78 CNS; 64.1 µM in the experiment on HOP-18 NSCLC; 55.9 µM in the experiment with KM20L2 colon; 83.8 µM with RXF-631 renal; 53.1 µM in the experiment on M19-MEL melanoma; 48.9 µM in the experiment on DMS 273 small cell lung. Moreover, the TGI in the experiment on XF 498 CNS amounted to 31.9 µM.

Regarding `COC12C(COC(N)=O)C3=C(C(=O)C(C)=C(N)C3=O)N1CC1C2N1C` (stereo unspecified), the TGI was 51.1 µM in the experiment with SNB-78 CNS; 57.8 µM in the experiment on DLD-1 colon; 82.5 µM in the experiment on HOP-18 NSCLC; 52.3 µM with KM20L2 colon; 24.7 µM in the experiment with M19-MEL melanoma; 75.2 µM in the experiment on P388 leukemia. In addition, the TGI in the experiment with SN12K1 renal was found to be 19.9 µM; with DMS 273 small cell lung, 5.81 µM; with XF 498 CNS it was 21 µM; in the experiment with P388/ADR leukemia, 263 µM.

On to `C=COC(=O)N[C@H]1CCc2cc(OC)c(OC)c(OC)c2-c2ccc(SC)c(=O)cc21`, for which the TGI is > 100 µM in the experiment on SNB-78 CNS; > 100 µM in the experiment on HOP-18 NSCLC; < 0.01 µM in the experiment with KM20L2 colon; > 100 µM in the experiment with M19-MEL melanoma; > 100 µM in the experiment on DMS 273 small cell lung; > 62.3 µM with XF 498 CNS.

On to `COc1cc2c3c(c1OC)-c1cc4c(cc1CC3(C#N)N(C(=O)c1ccccc1)CC2)OCO4` (stereo unspecified), for which the TGI in the experiment with SNB-78 CNS was 42.6 µM; in the experiment with DLD-1 colon, > 100 µM; with HOP-18 NSCLC, 93.2 µM; in the experiment on KM20L2 colon it was > 100 µM; in the experiment on M19-MEL melanoma it was > 100 µM; with DMS 273 small cell lung it was > 79.4 µM. This molecule also yielded a TGI in the experiment with XF 498 CNS of 24.8 µM.

On to `C/C(=N\NC(=S)N1CCCCCC1)c1ccccn1`, for which the GI50 with SNB-78 CNS was 0.355 µM; in the experiment on HOP-18 NSCLC, 0.72 µM; in the experiment with M19-MEL melanoma, 0.109 µM; in the experiment on XF 498 CNS, 0.0141 µM. The TGI in the experiment with SNB-78 CNS was 13.7 µM; with DLD-1 colon, 1.38 µM and 4.44 µM; in the experiment with HOP-18 NSCLC, 0.927 µM and 6.14 µM; with RXF-631 renal, 2.83 µM; with M19-MEL melanoma, 1.06 µM and 0.687 µM; in the experiment with DMS 273 small cell lung, 1.69 µM and 2.13 µM.

As to `[N-]=[N+]=N/C1=C/CCCCC(=O)C1`, the TGI in the experiment with SNB-78 CNS, in the experiment on DLD-1 colon, in the experiment on KM20L2 colon, with M19-MEL melanoma, in the experiment on DMS 273 small cell lung and in the experiment on XF 498 CNS was > 100 µM each time.

As for `COc1ccc2c(c1)c[n+](C)c1c3cc(OC)c(OC)cc3ccc21`, the TGI in the experiment with SNB-78 CNS was 22.4 µM; in the experiment with DLD-1 colon, 18 µM; in the experiment with HOP-18 NSCLC, 29.4 µM; in the experiment with KM20L2 colon, 17.8 µM; in the experiment on M19-MEL melanoma it was 15.8 µM; in the experiment with DMS 273 small cell lung, 3.54 µM. In the experiment with XF 498 CNS, this molecule had a TGI of 17.1 µM.

Take `CC(=O)N1CCC(=O)/C(=C/c2ccccc2)C1`: the TGI was > 100 µM in the experiment on SNB-78 CNS; 66.2 µM in the experiment with DLD-1 colon; 51.2 µM in the experiment with HOP-18 NSCLC; > 100 µM with KM20L2 colon; > 100 µM in the experiment on RXF-631 renal; 58.3 µM in the experiment on M19-MEL melanoma. Also, the TGI with DMS 273 small cell lung and in the experiment with XF 498 CNS was > 100 µM throughout.

As for `Cc1ccc(S(=O)OCc2c(C)c(C)c(COS(=O)c3ccc(C)cc3)c(C)c2C)cc1` (stereo unspecified), the TGI in the experiment with SNB-78 CNS, in the experiment on DLD-1 colon, in the experiment on HOP-18 NSCLC, in the experiment on KM20L2 colon, in the experiment with M19-MEL melanoma and with DMS 273 small cell lung was > 100 µM each time. The TGI in the experiment on XF 498 CNS was > 100 µM.
